# Measurements taken from patent US12582721B2, “Molybdenum-based feed supplement for bees” (UNIVERSITE DE VERSAILLES—SAINT-QUENTIN-EN-YVELINES, priority 2020, dated 2026).
# Columns and labels:
# [1] = Chemical stability of the complexes (solid, water, physiological medium, sugar syrup; 1H-NMR or UV-vis); type: physicochemical; conditions: for Stability in a physiological medium or in a sugar syrup: physiological medium or sugar syrup with 50% by weight, very low concentrations; for Stability in water: 5×10^−3-2×10^−7 M concentration range (K—Mo2O2S2-LCys: down to micromolar concentrations)
# Excerpt: In solid form, the compounds obtained are perfectly stable in air and can be kept without any special conditions for years without any alteration.
# The stabilities of the complexes in solution are studied by different techniques (^1H-NMR or UV-vis spectroscopy), the objective being to study their behavior in different media in terms of stability.
# [2] = test system: healthy Madin-Darby canine kidney epithelial cells of the MDCK line; assay: Resazurin cell proliferation test, MDCK cells; type: cell-based
# Excerpt: (§1) For cell culture, human cervical epithelial cells of the HeLa line, human epithelial pancreatic adenocarcinoma cells of the BxPC-3 line and healthy Madin-Darby canine kidney epithelial cells of the MDCK line were used in this study. The Resazurin cell proliferation test was applied according to the literature (S. Anoopkumar-Dukie, J. B. Carey, T. Conere, E. O'Sullivan, F. N. van Pelt, A. Allshire, Br J Radiol 2005, 78, 945, DOI: 10.1259/bjr/54004230). As an indicator of the effectiveness of the experimental compounds on cell proliferation, the median inhibitory concentration (IC50) was used. The lower the IC50 value, the higher the activity (in this case, the cytotoxicity).
# (§2) Five formula I complexes were tested in this study in comparison to two reference anti-cancer compounds (“Cisplatin” and Doxorubicin complex).
# [3] = test system: human epithelial pancreatic adenocarcinoma cells of the BxPC-3 line; assay: Resazurin cell proliferation test, BxPC-3 cells; type: cell-based
# Excerpt: as §1, §2
# [4] = test system: human cervical epithelial cells of the HeLa line; assay: Resazurin cell proliferation test, HeLa cells; type: cell-based
# Excerpt: as §1, §2
# [5] = cited from earlier work
# [6] = healthy cells, IC50 equal to and greater than 100 μM considered no activity
# [7] = pancreatic cancer cells, IC50 equal to and greater than 100 μM considered no activity
# [8] = cervical cancer cells, IC50 equal to and greater than 100 μM considered no activity
SMILES,Stability in a physiological medium or in a sugar syrup [1],Stability in water [1],"IC50 [2, 6]","IC50 [3, 7]","IC50 [4, 8]",other results
O=C([O-])CN(CCN(CC(=O)[O-])CC(=O)[O-])CC(=O)[O-].[O]=[Mo+]12[S][Mo+]1(=[O])[S]2 [[Mo2O2S2-EDTA]^2−],good stability,no sign of decomposition,–,–,–,–
"COc1cccc2c1C(=O)c1c(O)c3c(c(O)c1C2=O)C[C@@](O)(C(=O)CO)C[C@@H]3O[C@H]1C[C@H](N)[C@H](O)[C@H](C)O1 [Doxorubicin, reference compound]",–,–,–,–,–,"IC50 ([2]; Canis lupus familiaris, MDCK): 1.48 ± 3.1 µM; IC50 ([3]; Homo sapiens, BXPC-3): 3.99 ± 7.9 µM; IC50 ([4]; Homo sapiens, HeLa): 1.31 µM"
"N[C@@H](C[S-])C(=O)[O-].N[C@@H](C[S-])C(=O)[O-].[K+].[K+].[O]=[Mo+]12[S][Mo+]1(=[O])[S]2 [K—Mo2O2S2-Cys, K2[Mo2O2S2 (LCys)2]·xH2O]",good stability,without any breakdown,–,–,–,"IC50, MDCK [2, 6]: Inactive; IC50, BxPc-3 [3, 7]: Inactive; IC50, HeLa [4, 8]: Inactive"
[Li] [lithium],–,–,–,–,–,Serum lithium concentration at which toxicity appears [5]: greater than 2 mmol/l
O=C([O-])CN(CCN(CC(=O)[O-])CC(=O)[O-])CC(=O)[O-].[O]=[Mo+]12[S][Mo+]1(=[O])[S]2.c1ccc([P+](c2ccccc2)(c2ccccc2)c2ccccc2)cc1.c1ccc([P+](c2ccccc2)(c2ccccc2)c2ccccc2)cc1 [PPh4—Mo2O2S2-EDTA],–,–,≥ 100 µM,59.8 ± 26.4 µM,≥ 100 µM,–
"N.N.[Cl][Pt][Cl] [Cisplatin, reference compound]",–,–,30.9 ± 1.1 µM,11.2 ± 1.2 µM,3.99 ± 0.33 µM,–
